Reference: publication PMC11284790, “Targeting Myeloperoxidase Ameliorates Gouty Arthritis: A Virtual Screening Success Story” (Journal of Medicinal Chemistry, 2024)
Read-outs that look alike come from different tables or passages of the source.

Experiments:
[1] = biological target: Human leukocyte MPO (Homo sapiens, UniProt P05164); assay: MPO peroxidatic activity assay (AmplexRed oxidation); assay type: biochemical; design: Human leukocyte MPO (EC 1.7.1.11) was purchased from Planta Natural Products; purchased Planta Natural Products (Vienna, Austria); host or cells: human leukocytes
Sequence of Human leukocyte MPO (P05164 279-745 limits assumed): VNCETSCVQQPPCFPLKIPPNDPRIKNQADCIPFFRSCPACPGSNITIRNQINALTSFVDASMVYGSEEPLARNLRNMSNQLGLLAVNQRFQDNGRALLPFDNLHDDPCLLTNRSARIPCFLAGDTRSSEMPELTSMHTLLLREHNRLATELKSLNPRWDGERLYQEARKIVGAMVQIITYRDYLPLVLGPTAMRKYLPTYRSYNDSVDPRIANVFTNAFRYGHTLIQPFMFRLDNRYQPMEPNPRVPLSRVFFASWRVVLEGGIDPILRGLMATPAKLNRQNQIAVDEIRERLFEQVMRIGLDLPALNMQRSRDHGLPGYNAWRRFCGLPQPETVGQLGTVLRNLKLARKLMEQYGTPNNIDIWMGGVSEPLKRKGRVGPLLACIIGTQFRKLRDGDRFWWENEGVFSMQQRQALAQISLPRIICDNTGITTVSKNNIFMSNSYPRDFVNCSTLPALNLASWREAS
Sequence of Human leukocyte MPO (P05164 165-278 limits assumed): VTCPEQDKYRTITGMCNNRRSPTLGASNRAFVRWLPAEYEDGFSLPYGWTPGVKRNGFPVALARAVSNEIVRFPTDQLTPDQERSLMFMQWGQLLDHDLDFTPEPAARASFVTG
Procedure: MPO peroxidase activity was kinetically monitored using the artificial peroxidase substrate AmplexRed, which is oxidized to resorufin and can be detected by fluorescence.[34] Reactions were carried out in phosphate buffer (50 mM, pH 7.4), MPO (100 pM), cetyltrimethylammonium chloride (0.03%), diethylenetriaminepentaacetic acid (100 μM), AmplexRed (30 μM), and compounds (20 μM in 0.3% DMSO). The reaction was started by adding 2 μM hydrogen peroxide. The reaction product was assessed by fluorescence at λex = 530 and λem = 580 nm. The initial velocity was calculated by the slope of the linear regression in the first minutes of reaction. Inhibition is represented as a percentage of the control (vehicle).

[2] = test system: human peripheral blood neutrophils; assay: Cellular production of HOCl, PMA-activated peripheral blood neutrophils; assay type: cell-based; conditions: 20 μM compound, 100 nM PMA, 1 h
Procedure: Human neutrophils were obtained from healthy individuals as previously described.[24] The experiments were approved by the local ethics committee (CEPSH-ICB 1435/18).
Measurement of HOCl production by 1 × 10^6 dHL-60 or neutrophils was carried out in PBS (10 mM Na2HPO4, 2 mM KH2PO4, 0.5 mM MgCl2, 1 mM CaCl2, 140 mM NaCl, 5.5 mM dextrose, 100 μM diethylenetriaminepentaacetic acid, 5 mM taurine) in the presence of the compounds (20 μM in 0.3% DMSO) or 0.3% DMSO (control). Cells were activated with phorbol myristate acetate (100 nM) at 37 °C for 1 h. After incubation, cells were centrifuged at 1400 rpm for 10 min, and the supernatant was diluted threefold. Finally, 240 μL of this supernatant was added to 60 μL acetate buffer (400 mM, pH 5.4) containing NaI (100 μM) and TMB (2 mM in DMFO 10%). Taurine chloramine was quantified by TMB oxidation at 655 nm.[33] Inhibition of HOCl production was calculated as the percentage of the control (vehicle).

[3] = test system: MSU-induced paw edema; assay: MSU-induced paw edema, oral treatment; assay type: in vivo, male C57BL/6 mice
Procedure: Paw volume (mL) was measured at various time points, including before injection (baseline, B), […] 1, 2, 3, 4, 5, and 6 h following MSU injection using a plethysmometer (Ugo Basile, Comerio, Italy) (Figure 7). For this, the injected hind paw was immersed into the dipping solution (6 mM NaCl diluted in distilled water and added with 2 mL/L of a wetting compound provided by the manufacturer) until the ankle. The extent of edema was quantified as a change in paw volume (Δ mL) by subtracting the basal paw volume from the volume of the paw measured at each time point. To evaluate the antiedematogenic effect of orally administered MPO inhibitors (p.o.), the animals were fasted for 1 h and then treated with equimolar doses of the following substances: vehicle (VEH: 5% DMSO; 0.5% tween 80 in PBS), mefenamic acid (30 mg/kg), RL 6 (33 mg/kg), RL 7 (54 mg/kg), RL 21 (30 mg/kg), or ZINC9089086 (34 mg/kg). After 1 h, the anesthetized mice (2% isoflurane, v/v in O2) received either the vehicle (PBS, 30 μL, i.pl.) or 1.5 mg/30 μL MSU (i.pl.). The paw volume was evaluated at the same time points as previously described. The percentage of edema inhibition by the compounds was calculated discounting the paw volume of mice that received oral or intraperitoneal vehicle and PBS intraplantar (VEH + VEH).

[4] = test system: human neutrophils; assay: MSU-induced NETosis assay (sytox green fluorescence microscopy); assay type: cell-based; conditions: 20 μM compound, MSU 250 μg/mL, 90 min
Procedure: NETosis assay was conducted on human neutrophils adhered to lysine-coated glass coverslips as previously reported.[80] After neutrophils’ adhesion, the compounds were diluted in RPMI medium (free of phenol red and fetal bovine serum) at a final concentration of 20 μM (0.15% DMSO) and added to the cells for 15 min at 37 °C in a 5% CO2 atmosphere. Then, MSU crystals (250 μg/mL), known to induce NETosis, were added. After 90 min incubation, the medium was carefully removed, paraformaldehyde was added (500 μL at 4%), and incubated at 4 °C overnight. In the following day, paraformaldehyde was removed, and cells were washed threefold with tris-HCl buffer (20 mM, pH 7.4) and kept into the same buffer at 4 °C. Tris-HCl buffer was carefully removed, and DNA was stained by adding 500 μL SYTOX Green (500 nM diluted in tris-HCl buffer). The system was kept for 30 min at room temperature, protected from light. After staining, the coverslips were mounted over the glass slides using ProLong Diamond Antifade Mountant fixation medium. Fluorescence images were acquired in an Axiovert 200 (Zeiss) fluorescence microscope with a 20x/0.4 objective and Zeiss Filter Set 09, λex = 450–490 nm, λem = above 515 nm. Images were taken by an Axiocam HR R3 camera device.

[5] = test system: total peroxidase activity; assay: Paw tissue total peroxidase activity after MSU; assay type: in vivo, male C57BL/6 mice; conditions: intraperitoneal pretreatment (RL6 30 mg/kg), tissue collected at 6 h
Procedure: After the assessment of paw edema was completed, the mice were immediately anesthetized by inhalation of 2% isoflurane mixture in oxygen (O2). Subsequently, the surface of the hind paws was collected for the measurement of total peroxidase activity, IL-6, and IL-1β. These tissue samples were then frozen using dry ice and stored at −80 °C until further analysis. The frozen tissues were later pulverized into a fine powder using liquid nitrogen and homogenized in a phosphate buffer (100 mM, pH 7.4). For the analysis of total peroxidase activity, a portion of this homogenate was mixed with hexadecyltrimethylammonium (1% HTAB, pH 6.0), vigorously vortexed, and sonicated. The resulting mixture was then centrifuged at 10,000g for 10 min, at 4 °C, and heated at 60 °C for 2 h. The sample of each supernatant was incubated with a solution containing 50 mM phosphate buffer, 0.164 mg/mL of o-dianisidine dihydrochloride, and H2O2 (0.0005%, pH 6.0). […] Each unit represents the capacity to degrade 1 μmol of H2O2 per minute.[81]

Compound | inhibition at 20 µM ([1]; 20 μM compound, 100 pM MPO, 30 μM AmplexRed, 2 μM H2O2, pH 7.4, read-out: % Inhibition (at 20 μM) Peroxidatic) [%] | inhibition at 20 µM ([1]; supplementary csv copy of Table 1, read-out: % Inhibition (Peroxidatic)) [%] | inhibition of HOCl production in peripheral blood neutrophils [2] | inhibition of edema vs VEH + MSU ([3]; 33 mg/kg po) [%] | inhibition of MSU-induced NETosis [4] | reduction in total peroxidase activity in hind paw tissue [5] | % Inhibition (at 20 μM) Peroxidatic ([1]; 20 μM compound, 100 pM MPO, 30 μM AmplexRed, 2 μM H2O2, pH 7.4) | % Inhibition (Peroxidatic) ([1]; supplementary csv copy of Table 1) | inhibition of edema vs VEH + MSU ([3]; 54 mg/kg po) [%]
Nc1cc2c3c(cccc3c1)C(=O)N(N)C2=O [RL6] | 73 ± 13.4 | 73 ± 13.4 | significantly inhibited | 57.0 | strongly inhibited | 61.5% | – | – | –
CN1CCc2nc3sc(C(=O)Nc4cccc(C#N)c4)c(N)c3cc2C1 [RL7] | – | – | significantly inhibited | – | to a lesser extent | unable to decrease | INACTIVE | INACTIVE | 74.3
